BindingDB's records for patent US11548890 (Nimbus Saturn, 2023)

Target: Mitogen-activated protein kinase kinase kinase kinase 1 (Homo sapiens, UniProt Q92918)
Experiment: HPK1 Biochemical Enzyme Assay
Procedure: HPK1 biochemical enzyme assay: HPK1 enzyme inhibition was measured using a microfluidic mobility shift assay. […] Test compounds were titrated in ten point curves (top final assay concentration 3 μM), and preincubated with enzyme/substrate mix for 30 min prior to initiation of the reaction by addition of ATP (1 mM final concentration) and substrate (1 μM final concentration; Carna Biosciences) diluted in assay buffer supplemented by MgCl2 (final assay concentration of 5 mM). Following 60 min incubation at RT, the reaction was terminated by addition of 60 μl/well termination buffer (Carna Biosciences) and signal determination using a Caliper EZ Reader (Perkin Elmer, UK).

Mitogen-activated protein kinase kinase kinase kinase 1, sequence (Q92918 whole entry): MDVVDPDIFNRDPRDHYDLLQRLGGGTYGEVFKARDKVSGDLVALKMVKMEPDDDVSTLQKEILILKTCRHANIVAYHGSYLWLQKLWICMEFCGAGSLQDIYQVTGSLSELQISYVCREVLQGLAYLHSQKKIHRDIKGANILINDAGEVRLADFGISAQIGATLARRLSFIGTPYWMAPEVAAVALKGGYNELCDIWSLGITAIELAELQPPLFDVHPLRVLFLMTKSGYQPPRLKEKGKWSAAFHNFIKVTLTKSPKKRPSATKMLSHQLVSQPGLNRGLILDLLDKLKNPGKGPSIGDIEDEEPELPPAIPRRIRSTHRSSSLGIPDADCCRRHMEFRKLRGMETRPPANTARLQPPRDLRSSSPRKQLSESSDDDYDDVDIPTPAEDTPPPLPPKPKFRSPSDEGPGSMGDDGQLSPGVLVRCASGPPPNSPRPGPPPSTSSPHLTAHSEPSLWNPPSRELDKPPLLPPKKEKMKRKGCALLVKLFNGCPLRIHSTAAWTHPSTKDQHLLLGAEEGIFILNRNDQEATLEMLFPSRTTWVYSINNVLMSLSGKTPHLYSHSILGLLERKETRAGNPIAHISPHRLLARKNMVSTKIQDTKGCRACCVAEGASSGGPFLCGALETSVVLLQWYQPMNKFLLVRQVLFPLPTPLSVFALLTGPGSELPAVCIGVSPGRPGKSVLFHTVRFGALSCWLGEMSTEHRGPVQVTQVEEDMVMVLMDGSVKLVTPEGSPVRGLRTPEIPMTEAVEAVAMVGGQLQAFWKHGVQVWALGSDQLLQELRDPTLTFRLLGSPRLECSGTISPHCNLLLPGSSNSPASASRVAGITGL

Row | IC50 | Structure (SMILES)
1 | < 0.1 µM | CC1=CC2N=CC(c3ccc(Nc4ccc(N5CCC(O)CC5)cn4)c4c3CNC4=O)=C2C=C1 (centres undefined) [US11548890, Compound I-137]
2 | in the range around 0.55 µM | COC1CCN(c2ccc(Nc3ccc(-c4cnc5c(F)cccn45)c4c3C(=O)NC4)nc2)CC1 [US11548890, Compound I-455]
3 | < 0.1 µM | CC(C)(O)[C@H]1CN(c2ccc(Nc3cnc(-c4cnc5cnccn45)c4c3C(=O)NC4)nc2)CCO1 [US11548890, Compound I-486]
4 | < 0.1 µM | CN(C)Cc1nc(Nc2ccc(-c3cnc4ccccn34)c3c2C(=O)NC3)ccc1[C@@H]1CCOC1 [US11548890, Compound I-714]
